Here are results for ten compounds from ChEMBL document CHEMBL1201862, “PubChem BioAssay data set” (2004).

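Tested at 5 concentrations; 48 h exposure; 96-well plates; endpoints linearly interpolated, else capped at highest concentration. The concentration for 50% growth inhibition is given as GI50.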 Activity calls are given as the source filed them. Cut-off read from the data, not from the text of the source: active = GI50 up to about 1.1 µM and inactive = higher. Bounds are passed on as bounds.

Common to all, as to test: NCI tumour cell line growth inhibition, 48 h
Assay [1] concerns RPMI-8226.
Assay [2] relates to SNB-75.
The test system of assay [3] is NCI-H460.
Assay [4] relates to OVCAR-4.
In assay [5] the test system is SK-MEL-2.
Assay [6] has as its system SK-MEL-5.
Assay [7] concerns Malme-3M.
Assay [8] relates to SF-268.
The subject of assay [9] is NCI-H226.
The subject of assay [10] is HCT-15.
Assay [11] deals with K562.
Assay [12] concerns U-251.
Assay [13] concerns SW-620.
Assay [14] relates to HOP-62.
Assay [15] has as its system OVCAR-5.
For assay [16], the system named is A549.
Assay [17] deals with CAKI-1.
Assay [18] relates to UACC-257.
Assay [19] deals with SF-539.
The test system of assay [20] is SNB-19.

Regarding `Cc1ccc(C)c(N2C(=O)C(=O)C(c3nc4ccccc4s3)/C(=N/N)C2=O)c1` (centres undefined), the GI50 in assay [1] is > 100 µM (inactive); in [2] it was > 100 µM (inactive); in assay [3], > 100 µM (inactive); in assay [4], > 46.9 µM (inactive); in assay [5], > 100 µM (inactive); in assay [6], > 100 µM (inactive). The GI50 in assay [7] is > 100 µM (inactive); in assay [8] it was > 100 µM (inactive); in assay [9], > 100 µM (inactive); in assay [10], > 100 µM; in [11] it was > 100 µM (inactive); in assay [12], > 100 µM (inactive). The GI50 in assay [13] was > 100 µM (inactive); in [14] it was > 100 µM (inactive); in [15] it was > 100 µM (inactive); in [16], > 100 µM (inactive); in [17] it was > 100 µM (inactive); in assay [18], > 27.9 µM (inactive). Also, the GI50 in assay [19] and in assay [20] was > 100 µM (inactive) throughout.

`O=C(O)Cc1ccc2c(c1O)C(=O)c1c(ccc(CC(=O)O)c1O)C2=O`: the GI50 in assay [1], in assay [2], in assay [3], in [4], in assay [5] and in assay [6] was > 100 µM (inactive) in each case. The GI50 is > 100 µM (inactive) in [7]; > 100 µM (inactive) in assay [8]; > 100 µM (inactive) in assay [9]; > 100 µM in assay [10]; > 100 µM (inactive) in assay [11]; > 100 µM (inactive) in assay [12]. Further, the GI50 in assay [13], in assay [14], in assay [15], in assay [16], in [17] and in assay [18] was > 100 µM (inactive) each time. The GI50 in assay [19] and in assay [20] was > 100 µM (inactive) each time.

Turning to `CC(CC(=O)Nc1ccc(NC(=O)CC(C)/N=N\C(N)=S)cc1)/N=N\C(N)=S` (centres undefined), the GI50 in assay [1], in assay [2], in assay [3], in assay [4], in assay [5] and in [6] was > 100 µM (inactive) throughout. Moreover, the GI50 in [7] is > 100 µM (inactive); in [8], > 100 µM (inactive); in assay [9], > 100 µM (inactive); in [10] it was 85.9 µM; in assay [11], > 100 µM (inactive); in assay [14], > 100 µM (inactive). In addition, the GI50 in assay [15], in assay [16], in assay [17], in assay [18], in [19] and in assay [20] was > 100 µM (inactive) throughout.

For the compound `Cn1cc2ccccc2c1-c1nc(F)nc(F)n1`, the GI50 in [1] is 33 µM (inactive); in assay [2], 92.3 µM (inactive); in assay [3] it was > 100 µM (inactive); in assay [4], > 100 µM (inactive); in assay [5] it was > 100 µM (inactive); in [6], > 100 µM (inactive). The GI50 was > 100 µM (inactive) in assay [7]; > 100 µM (inactive) in assay [8]; > 100 µM (inactive) in [9]; > 100 µM in [10]; > 100 µM (inactive) in assay [11]; > 100 µM (inactive) in assay [12]. The GI50 in assay [13], in assay [14], in assay [15], in assay [16], in assay [17] and in [19] was > 100 µM (inactive) in each case. In assay [20], the GI50 was > 100 µM (inactive).

`O=C(C#Cc1ccccc1)N1c2ccccc2CC1c1c[nH]c2ccccc12` (centres undefined): the GI50 in assay [1] is 13 µM (inactive); in assay [2], 11.7 µM (inactive); in [3], 18.6 µM (inactive); in assay [4], 26.3 µM (inactive); in assay [5] it was 12.5 µM (inactive); in assay [6], 14.4 µM (inactive). Besides, the GI50 in assay [7] is 14.9 µM (inactive); in assay [9], 9.79 µM (inactive); in [10], 11.5 µM; in [11], 10.7 µM (inactive); in assay [12] it was 17.5 µM (inactive); in assay [13], 15.3 µM (inactive). Besides, the GI50 was 8.95 µM (inactive) in assay [14]; 24.8 µM (inactive) in [15]; 18.6 µM (inactive) in [16]; 11.4 µM (inactive) in assay [17]; 19.1 µM (inactive) in assay [18]; 13 µM (inactive) in [19]. Besides, the GI50 in assay [20] is 30.3 µM (inactive).

For `Cn1c(SCc2ccc(F)cc2)nnc1C12CC3CC(CC(C3)C1)C2`, the GI50 is 20.1 µM (inactive) in assay [1]; 37.8 µM (inactive) in assay [2]; 40 µM (inactive) in [3]; 35.2 µM (inactive) in [4]; 40.6 µM (inactive) in [5]; 11.9 µM (inactive) in assay [6]. Also, the GI50 in [7] was 19.5 µM (inactive); in assay [8], 40.4 µM (inactive); in assay [9], 33.5 µM (inactive); in assay [10] it was 26.4 µM; in assay [11] it was 24.2 µM (inactive); in assay [12], 35.2 µM (inactive). For the same compound, the GI50 is 58.7 µM (inactive) in assay [13]; 47.3 µM (inactive) in assay [14]; 63.2 µM (inactive) in assay [15]; 36.6 µM (inactive) in assay [16]; > 100 µM (inactive) in [17]; 33.2 µM (inactive) in assay [18]. For the same compound, the GI50 in [19] is 24.5 µM (inactive); in assay [20], 53.5 µM (inactive).

Regarding `COc1ccc2c3c([nH]c(=O)c2c1C(=O)O)-c1ccccc1CC3`, the GI50 in [1], in [2], in [3], in assay [4], in assay [5] and in assay [6] was > 100 µM (inactive) throughout. For the same compound, the GI50 in assay [7] was > 100 µM (inactive); in assay [8], > 100 µM (inactive); in assay [9], 65.8 µM (inactive); in assay [10], > 100 µM; in [11], > 100 µM (inactive); in [12], > 100 µM (inactive). In addition, the GI50 in assay [13], in assay [14], in [15], in assay [16], in assay [17] and in assay [19] was > 100 µM (inactive) each time. For the same compound, in assay [20], the GI50 is > 100 µM (inactive).

Turning to `O=[N+]([O-])c1ccc2c(/N=N/c3ccc4ccccc4c3O)c(O)cc(S(=O)(=O)O)c2c1`, the GI50 in assay [1] was 17.8 µM (inactive); in assay [2], 26.7 µM (inactive); in assay [3], 38.5 µM (inactive); in [4], 9.64 µM (inactive); in [5], 23 µM (inactive); in assay [6], 15.8 µM (inactive). Moreover, the GI50 in [7] was 18.3 µM (inactive); in assay [8], 8.89 µM (inactive); in assay [9], 4.66 µM (inactive); in assay [10], 9.93 µM; in [11], 20.6 µM (inactive); in [12], 7.41 µM (inactive). Further, the GI50 in [13] was 18.7 µM (inactive); in assay [14], 24.9 µM (inactive); in assay [15], 15.1 µM (inactive); in assay [16] it was 40.6 µM (inactive); in [17] it was 12.6 µM (inactive); in assay [18], 31.3 µM (inactive). Further, the GI50 in assay [19] was 11.4 µM (inactive); in assay [20] it was 13.2 µM (inactive).

In the case of `COC1CC(O[C@H]2CC[C@@]3(C)C(=CCC4(O)C3CCC35C(=O)OC6(C)O[C@@]43CCC65)C2)OC(C)C1O` (some centres undefined), the GI50 in assay [1], in assay [2], in assay [3], in [4], in [5] and in [6] was > 100 µM (inactive) each time. Also, the GI50 in assay [7] is > 100 µM (inactive); in [8], > 100 µM (inactive); in assay [9] it was > 100 µM (inactive); in assay [10], > 100 µM; in assay [11] it was > 100 µM (inactive); in [12], > 100 µM (inactive). Further, the GI50 in assay [14], in assay [15], in assay [16], in assay [17], in [18] and in [19] was > 100 µM (inactive) in each case. For the same compound, the GI50 in assay [20] was > 100 µM (inactive).

Consider `COc1ccc(CCc2cc(OC)c(OC)c(OC)c2)cc1`, for which the GI50 in assay [1] was 0.0309 µM (active); in assay [2], 0.0395 µM (active); in assay [3], 0.0277 µM (active); in assay [4] it was 5.05 µM (inactive); in assay [5], 0.146 µM (active); in [6], 0.0212 µM (active). The GI50 in assay [7] is 0.271 µM (active); in [8] it was 0.423 µM (active); in [9], 0.386 µM (active); in [10], 0.0169 µM; in [11] it was 0.012 µM (active); in [12] it was 0.0247 µM (active). The GI50 in [13] is 0.0171 µM (active); in assay [14], 0.0196 µM (active); in assay [15], 0.456 µM (active); in [16], 0.0403 µM (active); in assay [17], 0.0206 µM (active); in [18] it was 0.544 µM (active). The figures for the GI50 in [19] and in assay [20] were 0.0258 µM (active) and 0.111 µM (active), respectively.
